Counter-ions that a name gives are not always drawn.

Our source for the fold induction values is patent US8759535B2, “Substituted fused imidazole derivatives, pharmaceutical compositions, and methods of use thereof” (High Point Pharmaceuticals, LLC, priority 2010, dated 2014).

The first assay has as its system HMOX1. Nature of the assay: HMOX1 Protein Assay (immunostaining of HO-1 in NHLF cells, GE InCell 1000). The assay is classed as cell-based. To be noted: Homo sapiens, fold change above DMSO treated cells, 3 μM compound (asterisk), 16 h. The gist of the method: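 Fold induction of HO-1 over vehicle, normally at 5 μM compound (asterisk marks 3 μM), in 0.8% DMSO medium. Normal human lung fibroblasts were treated 16 h, then paraformaldehyde-fixed, anti-HO-1/Alexa 488 stained with Hoechst, and read by high-content imaging.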
As to `CC(C)c1ccc2nc(Nc3nc4cc(C(=O)NCC(=O)N(C)C)ccc4n3C)sc2c1` [Example 365, 2-(6-Isopropyl-benzothiazol-2-ylamino)-1-methyl-1H-benzoimidazole-5-carboxylic acid dimethylcarbamoylmethyl-amide], the fold induction (usually the ratio of treated to control signal) at 3 µM was determined as 20.1.

Regarding `Cn1c(Nc2nc3ccc(Cl)cc3s2)nc2cc(C(=O)NCCCN3CCCC3)ccc21` [Example 354, 2-(6-Chloro-benzothiazol-2-ylamino)-1-methyl-1H-benzoimidazole-5-carboxylic acid (3-pyrrolidin-1-yl-propyl)-amide], the fold induction at 3 µM is 17.

Take `Cn1c(Nc2nc3ccc(Cl)cc3s2)nc2cc(C(=O)NCC(=O)N3CC[C@H](O)C3)ccc21` [Example 401, 2-(6-Chloro-benzothiazol-2-ylamino)-1-methyl-1H-benzoimidazole-5-carboxylic acid [2-((S)-3-hydroxy-pyrrolidin-1-yl)-2-oxo-ethyl]-amide]: the fold induction at 3 µM was determined as 27.

`C[C@@H](NC(=O)c1ccc2c(c1)nc(Nc1nc3ccc(C(F)(F)F)cc3s1)n2C)C(=O)N1CCOCC1` [Example 472, 1-Methyl-2-(6-trifluoromethyl-benzothiazol-2-ylamino)-1H-benzoimidazole-5-carboxylic acid ((R)-1-methyl-2-morpholin-4-yl-2-oxo-ethyl)-amide] yielded a fold induction at 3 µM of 23.

The assay is the same for the next values; noted with them: Homo sapiens, fold change above DMSO treated cells, 5 μM compound, 16 h.
The compound `CN(C)C(=O)CNC(=O)c1ccc2c(c1)nc(Nc1nc3ccc(C(F)(F)F)cc3s1)n2C` [Example 134, 1-Methyl-2-(6-trifluoromethyl-benzothiazol-2-ylamino)-1H-benzimidazole-5-carboxylic acid dimethylcarbamoylmethyl-amide] had a fold induction at 5 µM of 54.5.

For the compound `COC(=O)c1ccc2c(c1)nc(Nc1nc3ccc(C)cc3s1)n2C` [Example 114, 1-Methyl-2-(6-methyl-benzothiazol-2-ylamino)-1H-benzoimidazole-5-carboxylic acid methyl ester], the fold induction at 5 µM is 5.1.

Compound `CC(O)CNC(=O)c1cc2nc(Nc3nc4ccc(OC(F)(F)F)cc4s3)n(C)c2cc1F` (stereo not drawn) [Example 60, 6-Fluoro-1-methyl-2-(6-trifluoromethoxy-benzothiazol-2-ylamino)-1H-benzoimidazole-5-carboxylic acid (2-hydroxy-propyl)-amide] registered a fold induction at 5 µM of 39.8.

The compound `CC(=O)NCCOCCNC(=O)c1ccc2c(c1)nc(Nc1nc3ccc(OC(F)(F)F)cc3s1)n2C` [Example 275, 1-Methyl-2-(6-trifluoromethoxy-benzothiazol-2-ylamino)-1H-benzoimidazole-5-carboxylic acid [2-(2-acetylamino-ethoxy)-ethyl]-amide] registered a fold induction at 5 µM of 77.4.

As to `Cn1c(Nc2nc3ccc(OC(F)(F)F)cc3s2)nc2cc(C(=O)O)c(F)cc21` [Example 41, 6-Fluoro-1-methyl-2-(6-trifluoromethoxy-benzothiazol-2-ylamino)-1H-benzoimidazole-5-carboxylic acid], the fold induction at 5 µM was 33.3.

With `Cn1c(Nc2nc3ccc(Cl)cc3s2)nc2cc(C(=O)N[C@@H]3CCNC3)ccc21` [Example 290, 2-(6-Chloro-benzothiazol-2-ylamino)-1-methyl-1H-benzoimidazole-5-carboxylic acid (R)-pyrrolidin-3-ylamide hydrochloride], the fold induction at 5 µM turned out to be 22.5.

Regarding `CCn1c(Nc2nc3ccc(Cl)cc3s2)nc2cc(C(=O)NCC(C)(C)OC)ccc21` [Example 178, 2-(6-Chloro-benzothiazol-2-ylamino)-1-ethyl-1H-benzoimidazole-5-carboxylic acid (2-methoxy-2-methyl-propyl)-amide], the fold induction at 5 µM is 25.7.

Compound `Cn1c(Nc2nc3ccc(OC(F)(F)F)cc3s2)nc2cc(C(=O)NCCCCO)c(F)cc21` [Example 222, 6-Fluoro-1-methyl-2-(6-trifluoromethoxy-benzothiazol-2-ylamino)-1H-benzoimidazole-5-carboxylic acid (4-hydroxy-butyl)-amide] returned a fold induction at 5 µM of 49.9.
